pIC50: −log10 of the molar value.
The compounds below were run on cellular SDMA in HCT116 cells (assay: In-Cell Western Assay of cellular SDMA, HCT116). Conditions: Homo sapiens, HCT-116, 96 hours, read-out: SDMA inhibition IC50 in HCT116.
Assay type: cell-based
Excerpt: (§1) HCT116^MTAPD Deletion cells were from Horizon; HCT116 cells were from ATCC; RPMI-1640 medium was purchased from ATCC (USA); penicillin-streptomycin was purchased from Gibco (USA); fetal bovine serum was purchased from ExCell; 96-well plate was purchased from Corning (USA); Symmetric Di-Methyl Arginine Motif [sdme-RG]antibody was purchased from CST (USA); IRDye 800CW Goat anti-Rabbit IgG secondary antibody was purchased from LI-COR (USA), and CellTag 700 stain was purchased from LI-COR (USA).
(§2) Compound dissolution: All the compounds were dissolved in dimethyl sulfoxide (DMSO) and then stored. The compounds were stored at −20 °C for long term storage.
The cells were cultured strictly in accordance with ATCC requirements. The cell culture medium (RPMI-1640 medium+10% serum+1% penicillin+streptomycin) was transferred to a 15 mL centrifuge tube and centrifuged at 1000 rpm for 5 min. The supernatant was removed. The cells were resuspended with complete culture medium, inoculated into a culture dish at the required density, and cultured in an incubator at 37 °C, 95% humid air, and 5% carbon dioxide. […]
150 μL of 8% paraformaldehyde was added to each well, and the plate was incubated at room temperature for 15 minutes. […] Signals were detected using Licor Odyssey CLX. […] The data were analyzed, and the final IC50 value was obtained.

| SMILES | pIC50 |
| --- | --- |
| CN(C(=O)C(=O)Nc1cnc(N)c2c1cnn2C)C1COc2cc(C(F)(F)F)ccc21 (single isomer, unassigned) [Example 112-P1] | 6.00 to 7.00 |
| CN(C(=O)C(=O)Nc1cnc(N)c2c1cnn2C)C1COCc2cc(C(F)(F)F)ccc21 (stereo not drawn) [Example 106-P2] | 7.00 to 8.00 |

What follows are compounds tested against T1, cellular SDMA in HCT116^MTAP Deletion cells (Homo sapiens, UniProt O14744) (assay: In-Cell Western Assay of cellular SDMA, HCT116 MTAP Deletion). Conditions: 96 hours, read-out: SDMA inhibition IC50 in HCT116^MTAP Deletion.
T1 construct: in-cell Western of symmetric dimethylarginine
T1 sequence (O14744 whole entry, stated change not applied): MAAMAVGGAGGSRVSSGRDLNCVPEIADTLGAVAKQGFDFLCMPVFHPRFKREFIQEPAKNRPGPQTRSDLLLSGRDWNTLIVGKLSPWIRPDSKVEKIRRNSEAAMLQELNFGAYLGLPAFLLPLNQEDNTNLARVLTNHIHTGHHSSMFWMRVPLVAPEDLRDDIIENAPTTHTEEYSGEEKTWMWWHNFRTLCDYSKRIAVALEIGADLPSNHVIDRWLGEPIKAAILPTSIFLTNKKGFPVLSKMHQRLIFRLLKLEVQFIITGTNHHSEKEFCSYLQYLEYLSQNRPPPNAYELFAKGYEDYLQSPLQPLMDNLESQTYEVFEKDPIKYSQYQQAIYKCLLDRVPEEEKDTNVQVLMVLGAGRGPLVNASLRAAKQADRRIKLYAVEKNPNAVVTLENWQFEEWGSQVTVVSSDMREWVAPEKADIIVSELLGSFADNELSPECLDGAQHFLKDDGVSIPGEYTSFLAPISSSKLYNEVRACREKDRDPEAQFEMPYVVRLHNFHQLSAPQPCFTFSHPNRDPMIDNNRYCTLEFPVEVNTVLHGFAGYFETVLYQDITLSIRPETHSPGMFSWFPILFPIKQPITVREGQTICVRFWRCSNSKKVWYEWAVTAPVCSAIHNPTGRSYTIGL
T1 sequence (Q9BQA1 whole entry partner): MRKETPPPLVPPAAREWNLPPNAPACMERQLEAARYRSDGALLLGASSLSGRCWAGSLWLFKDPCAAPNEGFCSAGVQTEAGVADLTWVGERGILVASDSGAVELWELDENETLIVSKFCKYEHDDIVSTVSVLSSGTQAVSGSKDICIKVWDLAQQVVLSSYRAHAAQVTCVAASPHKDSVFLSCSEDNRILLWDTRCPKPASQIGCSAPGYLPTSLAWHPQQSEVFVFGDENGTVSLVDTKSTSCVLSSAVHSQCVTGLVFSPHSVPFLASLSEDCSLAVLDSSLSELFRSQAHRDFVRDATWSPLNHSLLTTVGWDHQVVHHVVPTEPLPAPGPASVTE
Assay type: cell-based
Excerpt: as §1, §2
(§3) The cells were cultured strictly in accordance with ATCC requirements. The cell culture medium (RPMI-1640 medium+10% serum+1% penicillin+streptomycin) was transferred to a 15 mL centrifuge tube and centrifuged at 1000 rpm for 5 min. The supernatant was removed. The cells were resuspended with complete culture medium, inoculated into a culture dish at the required density, and cultured in an incubator at 37 °C, 95% humid air, and 5% carbon dioxide. The culture medium was replenished or the cells were passaged every 2-3 days depending on the cell growth condition.
When the confluency of cells in the culture dish reached about 90%, the cells were washed twice with PBS, and then digested with trypsin. 100 μl of the cells was inoculated into each well of a 96-well plate (800 cells/well). The plate was incubated overnight in a 37 °C and 5% CO2 incubator. 50 μL of 3× final concentration of a compound was added to the cell culture plate. Each compound was subjected to a 3-fold dilution, resulting in 10 concentration gradients, in duplicate, and the final concentration of DMSO was 0.5%. The plate was incubated in a 37 °C and 5% CO2 incubator for 96 hours.
150 μL of 8% paraformaldehyde was added to each well, and the plate was incubated at room temperature for 15 minutes. The supernatant was discarded. The plate was washed with PBS, and 200 μL of freshly prepared 1× Permeabilization buffer was added to each well. The plate was incubated at room temperature for 30 minutes. The supernatant was discarded. 200 μL of 1× Blocking buffer was added to each well, and the plate was incubated at room temperature for 2 hours. The supernatant was discarded. 50 μL of primary antibody (CST, 1× Incubation buffer 1:500 dilution) was added to each well, and the plate was incubated at 4 °C overnight. The supernatant was discarded. 250 μL of 1× Washing buffer was added to each well, and the plate was washed three times. 50 μL of secondary antibody (IRDye 800CW Goat anti-Rabbit IgG and CellTag 700 dye, 1:800 and 1:500 diluted in Incubation buffer) was added to each well, and the plate was incubated at room temperature for 1 hour. The supernatant was discarded. The plate was washed with 1× Washing buffer. Signals were detected using Licor Odyssey CLX. […] According to the different drug concentrations and their corresponding inhibition rates, the IC50 curve was drawn using GraphPad 8.0 software. The data were analyzed, and the final IC50 value was obtained.

| SMILES | pIC50 |
| --- | --- |
| CN(C(=O)C(=O)Nc1cnc(N)c2c1cnn2C)C1COc2cc(C(F)(F)F)ccc21 (single isomer, unassigned) [Example 112-P1] | ≥ 8.00 |
| CN(C(=O)C(=O)Nc1cnc(N)c2c1cnn2C)C1COCc2cc(C3=CCOCC3)ccc21 (stereo not drawn) [Example 132-P1] | ≥ 8.00 |
| Cc1ncc(-c2ccc3c(c2)COCC3N(C)C(=O)C(=O)Nc2cnc(N)c3c2cnn3C)s1 (stereo not drawn) [Example 135] | ≥ 8.00 |
| CN(C(=O)C(=O)Nc1cnc(N)c2c1cnn2C)C1COCc2cc(-c3ccnn3C)ccc21 (stereo not drawn) [Example 156-P1] | ≥ 8.00 |

Now from value to compound:

| pIC50 | SMILES |
| --- | --- |
| 7.00 to 8.00 | CN(C(=O)C(=O)Nc1cnc(N)c2c1cnn2C)C1COCc2nc(C(F)(F)F)ccc21 (stereo not drawn) [Example 152-P2] |
| ≥ 8.00 | CN(C(=O)C(=O)Nc1cnc(N)c2c1cnn2C)C1COc2cc(-c3ccnn3C)ccc21 (stereo not drawn) [Example 192-P1] |
| ≥ 8.00 | CN(C(=O)C(=O)Nc1cnc(N)c2c1cnn2C)C1COCc2cc(C(F)(F)F)ccc21 (stereo not drawn) [Example 106-P2] |

The compounds below were run on HCT116^MTAP Deletion cells (assay: Anti-proliferation assay on cells (CTG, 10 days), HCT116 MTAP Deletion). Conditions: Homo sapiens, HCT-116, 240 h, anti-proliferative activity, HCT116 MTAP Deletion, 10 days, class symbols; read-out: HCT116^MTAP Deletion GI50.
Assay type: cell-based
Experimental: (§4) HCT116^MTAD Deletion cells were from Pharmaron (China); HCT116 cells were from ATCC; McCoy's 5A medium was purchased from Invitrogen (USA); penicillin-streptomycin and fetal bovine serum were purchased from Gibco (USA); a 384-well plate was purchased from PerkinElmer (USA); and Cell-Titer Glo reagent was purchased from Promega (USA).
(§5) Compound dissolution: All the compounds were dissolved in dimethyl sulfoxide (DMSO) and then stored. The compounds were stored at room temperature in a dry condition for 3 months for short term storage or at −20 °C for long term storage.
as §3, with “(McCoy's 5A” for “(RPMI-1640”, “medium+10% fetal bovine” for “medium+10%”
(§6) When the confluency of cells in the culture dish reached about 90%, the cells were washed twice with PBS, and then treated with trypsin to become single cells. The cells were counted, and 40 μl of the cells was inoculated into each well of a 384-well plate (50 cells/well). The plate was equilibrated at 37 °C and 5% carbon dioxide for 10 to 15 minutes. The compounds were injected into the 384-well plate using Echo550, and positive control and negative control (0.1% DMSO) were set up. Each compound was subjected to a 3-fold dilution, resulting in 10 concentration gradients, in duplicate, and the content of DMSO was 0.1%. The 384-well plate was incubated in a cell culture incubator for 10 days.
(§7) Then, 40 μl of cell proliferation assay reagent (CTG) was added to the 384-well plate, and the plate was shaken to mix well. Then, the 384-well plate was incubated at 37 °C and 5% carbon dioxide in the dark for 30 minutes. The data were read using the Envision multifunctional microplate reader. […] According to the different drug concentrations and their corresponding inhibition rates, the GI50 curve was drawn using GraphPad 8.0 software. The data were analyzed, and the final GI50 value was obtained.

| SMILES | GI50 |
| --- | --- |
| Cc1ncc(-c2ccc3c(c2)COCC3N(C)C(=O)C(=O)Nc2cnc(N)c3c2cnn3C)s1 (stereo not drawn) [Example 135] | ≤ 10 nM |
| Cc1cc(NC(=O)C(=O)N(Cc2ccc(C(F)(F)F)cn2)C2CC2)cnc1N [Example 12] | 100 to 1000 nM |
| CC1OCC(N(C)C(=O)C(=O)Nc2cnc(N)c3c2cnn3C)c2ccc(C(F)(F)F)cc21 (stereo not drawn) [Compound 187] | ≤ 10 nM |
| Cc1cc(NC(=O)C(=O)N(Cc2ccc(C(F)(F)F)cn2)[C@H](C)C2CC2)cnc1N [Example 36] | 10 to 100 nM |
| Cc1cc(NC(=O)C(=O)N(Cc2ccc(C(F)(F)F)cn2)CC2CC2)cnc1N [Example 15] | 10 to 100 nM |
| CN(C(=O)C(=O)Nc1cnc(N)c2c1cnn2C)C1COCc2cc(-c3ccc(C(F)(F)F)nc3)ccc21 (racemic) [Compound 221] | ≤ 10 nM |
| Cc1cc(NC(=O)C(=O)N(Cc2ccc(C(F)(F)F)cn2)C(C)c2cscn2)cnc1N (single isomer, unassigned) [Example 19-P1] | 10 to 100 nM |

Next, values leading:

| GI50 | SMILES |
| --- | --- |
| 1000 to 10000 nM | Cc1cc(NC(=O)C(=O)N(Cc2ccc(C(F)(F)F)cn2)C(C)(C)C)cnc1N [Example 33] |
| ≤ 10 nM | CN(C(=O)C(=O)Nc1cnc(N)c2c1cnn2C)C1COc2cc(C(F)(F)F)ccc21 (stereo not drawn) [Example 89] |
| 100 to 1000 nM | C[C@H](c1ncccn1)N(Cc1ccc(C(F)(F)F)cn1)C(=O)C(=O)Nc1cnc(N)c2cnn(C)c12 [Example 34] |
| 100 to 1000 nM | Cc1nc(NC(=O)C(=O)N(Cc2ccc(C(F)(F)F)cn2)[C@H](C)c2ncccn2)cnc1N [Example 27] |
| 10 to 100 nM | CN(C(=O)C(=O)Nc1cnc(N)c2c1cnn2C)C1COCc2cc(C(F)(F)F)ccc21 (stereo not drawn) [Example 106-P1] |
| ≤ 10 nM | CN(C(=O)C(=O)Nc1cnc(N)c2c1cnn2C)C1COCc2cc(Cl)c(Cl)cc21 (stereo not drawn) [Example 163] |
| ≤ 10 nM | CN(C(=O)C(=O)Nc1cnc(N)c2c1cnn2C)C1COc2cc(-c3ccnn3C)ccc21 (racemic) [Compound 192] |
| ≤ 10 nM | CN(C(=O)C(=O)Nc1cnc(N)c2c1cnn2C)C1COCc2cc(C3=CCOCC3)ccc21 (stereo not drawn) [Example 100] |
| 1000 to 10000 nM | Cc1cc(NC(=O)C(=O)N(Cc2ccc(C#N)cn2)[C@H](C)c2ncccn2)cnc1N [Example 28] |
| 100 to 1000 nM | Cc1cc(NC(=O)C(=O)N(Cc2ccc(N3CCC(F)(F)C3)cn2)[C@H](C)c2ncccn2)cnc1N [Example 29] |
| 10 to 100 nM | CC(c1cscn1)N(Cc1ccc(C(F)(F)F)cn1)C(=O)C(=O)Nc1cnc(N)c2c1cnn2C (stereo not drawn) [Example 44] |
| 10 to 100 nM | CN(C(=O)C(=O)Nc1cnc(N)c2c1cnn2C)C1COc2cc(F)c(F)cc21 (racemic) [Compound 172] |
| 10 to 100 nM | CCC(C)N(Cc1ccc(C(F)(F)F)cn1)C(=O)C(=O)Nc1cnc(N)c(C)c1 (single isomer, unassigned) [Example 45-P1] |

Same assay, conditions: Homo sapiens, HCT-116, HCT116 MTAP Deletion; read-out: GI50 for HCT116^MTAP Deletion

| SMILES | GI50 |
| --- | --- |
| Cc1cc(NC(=O)C(=O)N(Cc2ccc(C(F)(F)F)cn2)C(C)(C)C)cnc1N [Example 33] | ≤ 100 nM |
| C[C@H](c1ncccn1)N(Cc1ccc(C(F)(F)F)cn1)C(=O)C(=O)Nc1cnc(N)c2cnn(C)c12 [Example 34] | ≤ 100 nM |

Same assay, conditions: anti-proliferative activity, HCT116 MTAP Deletion, 10 days, class symbols; read-out: HCT116^MTAP Deletion GI50

| SMILES | GI50 |
| --- | --- |
| CN(C(=O)C(=O)Nc1cnc(N)c2c1cnn2C)C1COc2cc(C(F)(F)F)ccc21 (single isomer, unassigned) [Example 112-P1] | ≤ 10 nM |
| CN(C(=O)C(=O)Nc1cnc(N)c2c1cnn2C)C1COCc2cc(C3=CCOCC3)ccc21 (stereo not drawn) [Example 132-P1] | ≤ 10 nM |

Continued, values first:

| GI50 | SMILES |
| --- | --- |
| 10 to 100 nM | CN(C(=O)C(=O)Nc1cnc(N)c2c1cnn2C)C1COc2cc(C(F)(F)F)ccc21 (single isomer, unassigned) [Example 112-P2] |
| ≤ 10 nM | CN(C(=O)C(=O)Nc1cnc(N)c2c1cnn2C)C1COCc2cc(C(F)(F)F)ccc21 (stereo not drawn) [Example 106-P2] |

Each compound was assayed on HCT116 cells (HCT116^MTAP WT) (assay: Anti-proliferation assay on cells (CTG, 10 days), HCT116 (MTAP WT)). Conditions: HCT116 / HCT116 MTAP Deletion; 14400 min.
Assay type: cell-based
Experimental: as §4, §5
as §3, with “(McCoy's 5A” for “(RPMI-1640”, “medium+10% fetal bovine” for “medium+10%”
as §6, §7

| SMILES | selectivity (HCT116 vs HCT116^MTAP Deletion GI50) |
| --- | --- |
| Cc1cc(NC(=O)C(=O)N(Cc2ccc(C(F)(F)F)cn2)C(C)(C)C)cnc1N [Example 33] | more than 300 times |
| C[C@H](c1ncccn1)N(Cc1ccc(C(F)(F)F)cn1)C(=O)C(=O)Nc1cnc(N)c2cnn(C)c12 [Example 34] | more than 300 times |

Same assay, conditions: Homo sapiens, HCT-116; HCT116 (MTAP WT)

| SMILES | GI50 |
| --- | --- |
| Cc1cc(NC(=O)C(=O)N(Cc2ccc(C(F)(F)F)cn2)C(C)(C)C)cnc1N [Example 33] | 1000 to 10000 nM |
| C[C@H](c1ncccn1)N(Cc1ccc(C(F)(F)F)cn1)C(=O)C(=O)Nc1cnc(N)c2cnn(C)c12 [Example 34] | 1000 to 10000 nM |

Same assay, conditions: ratio HCT116 MTAP WT GI50 / HCT116 MTAP Deletion GI50

| SMILES | Selectivity multiple of HCT116^MTAP WT GI50/HCT116^MTAP Deletion GI50 |
| --- | --- |
| CN(C(=O)C(=O)Nc1cnc(N)c2c1cnn2C)C1COCc2cc(Cl)c(Cl)cc21 (single isomer, unassigned) [Example 163-P1] | 94 |
| CN(C(=O)C(=O)Nc1cnc(N)c2c1cnn2C)C1COc2cc(C(F)(F)F)ccc21 (stereo not drawn) [Example 89] | 160 |
| CN(C(=O)C(=O)Nc1cnc(N)c2c1cnn2C)C1COCc2cc(C(F)(F)F)ccc21 (stereo not drawn) [Example 106-P2] | 169 |
